Some test systems named below: DMS 114 small cell lung; M19-MEL melanoma; XF 498 CNS; KM20L2 colon; DLD-1 colon; DMS 273 small cell lung; HOP-18 NSCLC; MCF7 breast; BT-549 breast; MDA-MB-435; DU-145 prostate.
What all share (experiment): NCI-60 cell line screen, 48 h

The structures appear in SMILES notation.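 Briefly, cells in 96-well plates were exposed to five compound concentrations for 48 h, and endpoints were estimated by linear interpolation. GI50 = concentration required for 50% inhibition of growth. TGI denotes the concentration required for complete inhibition of growth.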

With `CSc1ccc(/C=C2\CN(C)C/C(=C\c3ccc(SC)cc3)C2=O)cc1`, the TGI in the assay on DMS 114 small cell lung was greater than 100 µM; in the assay on M19-MEL melanoma, greater than 100 µM; with XF 498 CNS, 58 µM; in the assay on KM20L2 colon, greater than 100 µM; in the assay with DLD-1 colon, greater than 100 µM; with DMS 273 small cell lung, greater than 100 µM. The compound also had a TGI in the assay on HOP-18 NSCLC greater than 100 µM.
Regarding `C/C(CCn1[nH]c(=O)ccc1=O)=N\O`, the TGI in the assay on DMS 114 small cell lung, with M19-MEL melanoma, in the assay on XF 498 CNS, with KM20L2 colon, in the assay with DLD-1 colon and with DMS 273 small cell lung was greater than 100 µM throughout. In the assay with HOP-18 NSCLC, this compound gave a TGI greater than 100 µM.
For `CC1=C(C(=O)Nc2ccccc2C)C(c2ccco2)C(C(=O)Nc2ccccc2C)=C(C)N1C`, the TGI with DMS 114 small cell lung, in the assay with M19-MEL melanoma, in the assay with XF 498 CNS, in the assay on DLD-1 colon and in the assay with HOP-18 NSCLC was greater than 100 µM throughout.
`O=C1c2ccccc2C(=O)c2sc(Nc3cccc(Cl)c3)nc21`: the GI50 in the assay with MCF7 breast is 0.596 µM; with BT-549 breast, 1.67 µM; in the assay with MDA-MB-435, 0.258 µM. Further, the TGI in the assay on MCF7 breast amounted to 2.46 µM; in the assay with BT-549 breast, 3.04 µM; in the assay on DMS 114 small cell lung, 2.97 µM; in the assay on MDA-MB-435 it was 0.711 µM; with M19-MEL melanoma, 0.89 µM; in the assay with XF 498 CNS, 3.18 µM. In addition, the TGI with KM20L2 colon was determined as 20.2 µM; with DLD-1 colon, 3.95 µM; in the assay on DMS 273 small cell lung, 3.59 µM; with HOP-18 NSCLC it was 3.48 µM.
With `COc1ccc(NC(=O)c2cc(OC)cc(OC)c2)cc1`, the TGI in the assay with DMS 114 small cell lung is greater than 100 µM; in the assay with XF 498 CNS it was greater than 100 µM; in the assay with KM20L2 colon, 32 µM; in the assay with DLD-1 colon, greater than 100 µM; with DMS 273 small cell lung, greater than 100 µM; with HOP-18 NSCLC, greater than 100 µM.
`NS(=O)(=O)c1ccccc1C(=O)N/N=C(\c1nc2ccc([N+](=O)[O-])cc2[nH]c1=O)C(O)c1ccc([N+](=O)[O-])cc1` (stereo not given): the TGI in the assay with M19-MEL melanoma, in the assay on XF 498 CNS, with KM20L2 colon, in the assay on DLD-1 colon, in the assay with HOP-18 NSCLC and in the assay on DU-145 prostate was greater than 100 µM in each case.
Turning to `COc1cc2cnc3c4cc(OC(C)C)c(OC)cc4ccc3c2cc1OC`, the TGI with DMS 114 small cell lung, in the assay with M19-MEL melanoma, in the assay with XF 498 CNS, with KM20L2 colon, in the assay with DLD-1 colon and with HOP-18 NSCLC was greater than 100 µM each time.
Consider `CC(=O)OC1COC(n2c(=S)n(-c3ccc(C)cc3)c(=O)c3ccccc32)C(OC(C)=O)C1OC(C)=O` (stereo not given), for which the TGI in the assay on DMS 114 small cell lung, with M19-MEL melanoma, in the assay on XF 498 CNS, with KM20L2 colon, with DLD-1 colon and in the assay with DMS 273 small cell lung was greater than 100 µM throughout. In the assay on HOP-18 NSCLC, this compound showed a TGI greater than 100 µM.
As for `O=c1cc(-c2cccc(O)c2)[nH]c2cc3c(cc12)OCO3`, the TGI is greater than 100 µM in the assay on MCF7 breast; greater than 100 µM with BT-549 breast; 5.68 µM with DMS 114 small cell lung; 0.997 µM in the assay with MDA-MB-435; 95.9 µM in the assay on M19-MEL melanoma; greater than 100 µM in the assay on XF 498 CNS. Further, the TGI is greater than 100 µM with DLD-1 colon, 4.23 µM with DMS 273 small cell lung, greater than 100 µM with HOP-18 NSCLC and 0.883 µM in the assay on DU-145 prostate.
For the compound `COc1ccc2nc3cc(Cl)ccc3c(Sc3ccccc3[N+](=O)[O-])c2c1`, the TGI in the assay with DMS 114 small cell lung is greater than 100 µM; with M19-MEL melanoma it was greater than 100 µM; in the assay on XF 498 CNS it was 97.8 µM; with KM20L2 colon, greater than 100 µM; in the assay with DLD-1 colon, greater than 100 µM; in the assay on DMS 273 small cell lung it was greater than 100 µM. The compound further came in with a TGI in the assay with HOP-18 NSCLC greater than 100 µM.
With `CN(CC(=O)O)S(=O)(=O)c1ccc2ccccc2c1`, the TGI with M19-MEL melanoma, with XF 498 CNS, with KM20L2 colon, with DLD-1 colon, with DMS 273 small cell lung and in the assay with HOP-18 NSCLC was greater than 100 µM in each case.
Consider `CC1(C)COC(c2ccc(C(F)(F)F)cc2C(O)c2ccc3ccccc3c2)=N1` (stereo not given), for which the GI50 with DMS 114 small cell lung, with M19-MEL melanoma, in the assay on KM20L2 colon, in the assay with DMS 273 small cell lung and with HOP-18 NSCLC was greater than 100 µM throughout. In addition, the TGI in the assay on DMS 114 small cell lung was greater than 100 µM; in the assay with M19-MEL melanoma, greater than 100 µM; in the assay with XF 498 CNS, greater than 100 µM; in the assay with KM20L2 colon, greater than 100 µM; in the assay with DLD-1 colon, greater than 10 µM; in the assay on DMS 273 small cell lung, greater than 100 µM. For the same compound, in the assay with HOP-18 NSCLC, the TGI is greater than 100 µM.
In the case of `COc1cccc(NC(=O)CC(=O)n2nc(C)c(N=Nc3ccccc3)c2C)c1`, the TGI in the assay with DMS 114 small cell lung is greater than 100 µM; with M19-MEL melanoma it was greater than 100 µM; with XF 498 CNS, greater than 100 µM; in the assay on DLD-1 colon it was greater than 100 µM; with DMS 273 small cell lung, greater than 100 µM; in the assay on HOP-18 NSCLC it was 71.4 µM.
With `COc1ccc(/C=C\c2cc(OC)c3c(c2)OCO3)c(O)c1O`, the TGI was 8.81 µM in the assay on DMS 114 small cell lung; 31.1 µM with M19-MEL melanoma; 26.6 µM in the assay on XF 498 CNS; 61.5 µM in the assay on KM20L2 colon; 23 µM in the assay with DLD-1 colon; greater than 100 µM in the assay on DMS 273 small cell lung. In the assay with HOP-18 NSCLC, the TGI was 46.4 µM.

The values are drawn from PubChem BioAssay (NCI).
